# Test results reported in paper PMC11532494 (Nature Communications, 2024).
# T1: BsAcuC (2c) (Bacillus subtilis, UniProt P39067)
# T1 construct: made in house; host or cells: E. coli BL21 (DE3)
# T1 sequence (P39067 1-387): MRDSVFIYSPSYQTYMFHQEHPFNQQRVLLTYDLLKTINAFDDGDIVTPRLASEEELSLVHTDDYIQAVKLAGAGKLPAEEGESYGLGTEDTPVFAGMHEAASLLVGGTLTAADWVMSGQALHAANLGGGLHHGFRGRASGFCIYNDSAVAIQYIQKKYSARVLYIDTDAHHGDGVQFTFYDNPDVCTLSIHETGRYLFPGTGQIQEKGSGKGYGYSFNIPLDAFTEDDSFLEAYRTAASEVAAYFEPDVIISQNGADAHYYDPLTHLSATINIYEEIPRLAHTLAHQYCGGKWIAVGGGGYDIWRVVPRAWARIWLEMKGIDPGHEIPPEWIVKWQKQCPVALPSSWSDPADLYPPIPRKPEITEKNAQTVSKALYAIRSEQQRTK
# T2: Legionella cherrii acetyl-polyamine aminohydrolase (Legionella cherrii)
# T2 sequence: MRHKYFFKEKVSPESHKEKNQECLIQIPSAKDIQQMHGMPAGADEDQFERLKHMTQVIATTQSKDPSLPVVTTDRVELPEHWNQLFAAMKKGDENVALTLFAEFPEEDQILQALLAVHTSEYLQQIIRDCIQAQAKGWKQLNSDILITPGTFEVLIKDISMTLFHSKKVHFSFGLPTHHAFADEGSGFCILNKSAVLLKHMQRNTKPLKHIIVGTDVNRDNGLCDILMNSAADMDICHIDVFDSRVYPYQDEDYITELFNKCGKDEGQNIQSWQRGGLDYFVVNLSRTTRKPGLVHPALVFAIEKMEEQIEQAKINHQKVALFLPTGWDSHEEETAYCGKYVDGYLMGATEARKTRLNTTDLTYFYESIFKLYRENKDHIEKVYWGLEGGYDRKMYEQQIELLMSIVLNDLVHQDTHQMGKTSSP
# T3: Legionella pneumophila acetyl-polyamine aminohydrolase (Legionella pneumophila)
# T3 sequence: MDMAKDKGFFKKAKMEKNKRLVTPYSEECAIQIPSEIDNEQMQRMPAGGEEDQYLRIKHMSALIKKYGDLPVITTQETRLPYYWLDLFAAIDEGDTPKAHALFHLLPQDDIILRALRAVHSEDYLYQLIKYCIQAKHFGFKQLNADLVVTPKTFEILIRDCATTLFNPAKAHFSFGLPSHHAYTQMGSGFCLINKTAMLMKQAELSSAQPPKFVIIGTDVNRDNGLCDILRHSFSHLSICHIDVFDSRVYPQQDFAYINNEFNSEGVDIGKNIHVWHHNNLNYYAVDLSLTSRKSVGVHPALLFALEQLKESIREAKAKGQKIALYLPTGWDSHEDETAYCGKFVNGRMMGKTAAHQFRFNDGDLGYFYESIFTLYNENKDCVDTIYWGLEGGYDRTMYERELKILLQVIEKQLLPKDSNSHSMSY
# B1: Klebsiella pneumoniae HdaH (enzyme, UniProt A0A377Z5F6 1-371, looked up)
# chain: MKRKTGFFFDERCFWHSTGLHAVTLPVGGWVQPPAGGGHAESPETKRRMKNLMDVSGLTPQLALRSAAPASLEDLRRIHPDSYLERFKAISDNGGGMLGKEAPLGPGSYEIACLSAGLACAAVEAVLKGELDNAYSLSRPPGHHCLPDQSMGFCFLANIPIAVERAKAQLGLGKVAIIDWDVHHGNGTQHIYLQRDDVLTISLHQDGCFPPGYAGEDDRGVGAGEGYNINIPLLAGAGDDSWRYALETIVIPALARFEPELIIIACGYDANAMDPLARMQLHSDSFRAMTEQVQQAADRLCGGKLVMVHEGGYAESYVPFCGLAVMEALSGIRTEVQDPLLEFIQQQQPRATFAQFQRQAIDRLAQQFGLQ
# notes: also called KpHdaH (1b); KpHdaH
# B2: DmhA (dimethoate hydrolase) of Rhizorhabdus wittichii (enzyme)
# chain: MARTGFYTDERTFWHATGMQALFLPVGDWVQPPNGTAGADTPDSKRRLLNLAHASGLIRKLTLPEAIPATVEDVCRVHPRDYIDRFKATSDAGGGDLGHLAPFSKGGYEIAMLSCGLAIAAVDDVLSGKVDNAYALCRPAGHHCLADTPMGFCLLANIPIAIEAAKARHGISRVAVVDWDVHHGNGTQSIFYDRADVLTISIHQDRCFPPGYSGAEDRGEGAGLGYNLNVPLPAGAGHDAYVQAFDDIVVPALDDFKPDLIIVASGLDANSVDPLARMLLHSESYRLLTQKMLDAAARLCGGKLVVVHEGGYAEAYVPFCGHALLEALSGERTAVVDPVLEMAEAWQPGPEAAAFHRQWIDRLVADLGK
# notes: also called RwDmhA (1b); RwDmhA
# B3: p53-peptide QPKKac (peptide)
# peptide: QPKK
# Assays:
# BsAcuC (2c) [1] = target: T1, BsAcuC (2c); assay: Dose-response inhibition assay; type: biochemical; conditions: dose-response inhibition assay
# Source text: Data was transformed to relative enzyme activity (%) compared to control wells without inhibitor, and fitted to sigmoidal functions with variable slope (Eqs. 3, 4 parameters, h: Hill slope) to afford IC50 values. Assuming fast-on/fast-off competitive inhibition, the Cheng–Prusoff equation (Eq. 4) was employed to transform IC50 data into inhibitory constants (Ki), with KM values as determined previously.3 Res.activity=Res.activitybottom+Res.activitytop−Res.activitybottom/1+10^(logIC50−logI)h 4 Ki=IC50/1+[S]/KM
# KpHdaH (1b) = KpHdaH (1b) (Klebsiella pneumoniae, UniProt A0A377Z5F6); assay: biochemical; conditions: for IC50: 15 nM enzyme, 60 min, 37 °C
# LcApaH (3) = LcApaH (3) (Legionella cherrii, UniProt A0A0W0SGS1); assay: biochemical; conditions: for IC50: 0.5 nM enzyme, 30 min, 37 °C
# LpApaH (3) = LpApaH (3) (Legionella pneumophila, UniProt A0A2S6EWV0); assay: biochemical
# RwDmhA (1b) = RwDmhA (1b) (Rhizorhabdus wittichii, UniProt A0A067XIQ6); assay: biochemical; conditions: for IC50: 30 nM enzyme, 60 min, 37 °C
# BsAcuC (2c) [2] = target: T1, BsAcuC (2c); assay: Inhibitor screening assay (10 µM or 1 µM); type: biochemical
# Source text: Data was transformed to relative enzyme activity (%) compared to control wells without inhibitors.
# [3] = target: PrpH (propanil hydrolase) of Rhizorhabdus sp. (Rhizorhabdus sp.); assay: crystal structure
# [4] = target: PsApaH_(1-342) (4) (Pseudomonas sp.); assay: crystal structure
# [5] = target: Pseudomonas sp. acetylpolyamine amidohydrolase ApaH (Pseudomonas sp.); assay: SEC
# [6] = target: Δ20-37 KpHdaH (Klebsiella pneumoniae)
# crystal structure = target: the molecule itself; assay: crystal structure
# [7] = target: DmhA (dimethoate hydrolase) of Rhizorhabdus wittichii (Rhizorhabdus wittichii); assay: enzyme kinetics with substrate in
# [8] = target: Pseudomonas sp. acetylpolyamine amidohydrolase ApaH (Pseudomonas sp.); assay: enzyme kinetics with substrate in
# [9] = target: T2, Legionella cherrii acetyl-polyamine aminohydrolase (Legionella cherrii); assay: enzyme kinetics with substrate inhibition (Fluor-de-Lys assay)
# [10] = target: T3, Legionella pneumophila acetyl-polyamine aminohydrolase (Legionella pneumophila); assay: as above
# [11] = Log[IC50(M)], decadic log of IC50, 60 µM QPKKac
molecule,measurement,setting,value
"O=C(CCCCCCC(=O)Nc1ccccc1)NO [SAHA, suberoylanilide hydroxamic acid]","inhibition of BsAcuC (2c), in words",BsAcuC (2c) [1],not detecting any inhibition
same,IC50,"KpHdaH (1b); IC50, 60 µM QPKKac",9.71e-08 M
same,Ki,"KpHdaH (1b); Ki, calculated using the Cheng–Prusoff equation, 60 µM QPKKac",22.4 nM
same,IC50,KpHdaH (1b); [11],9.77e-08 M
same,IC50,"LcApaH (3); IC50, 40 µM LGKac",8.09e-07 M
same,Ki,"LcApaH (3); Ki, calculated using the Cheng–Prusoff equation, 40 µM LGKac",307 nM
same,IC50,"LcApaH (3); Log[IC50(M)], decadic log of IC50, 40 µM LGKac",8.13e-07 M
same,IC50,LpApaH (3); IC50,6.69e-07 M
same,Ki,LpApaH (3); Ki,230 nM
same,IC50,LpApaH (3); Log[IC50(M)],6.61e-07 M
same,Ki,RwDmhA (1b),41.6 nM
same,IC50,"RwDmhA (1b); IC50, 60 µM QPKKac",1.01e-07 M
same,IC50,RwDmhA (1b); [11],1e-07 M
same,remaining activity at 1 µM,"BsAcuC (2c) [2]; 1 µM inhibitor, mean of n = 2, 40 µM LGKac",84.7%
same,remaining activity at 1 µM,"BsAcuC (2c) [2]; 1 µM inhibitor, single measurements (two columns), 40 µM LGKac, 60 min, 37 °C",83.2%
same,remaining activity at 10 µM,"BsAcuC (2c) [2]; 10 µM inhibitor, mean of n = 2, 40 µM LGKac",60.6%
same,remaining activity at 10 µM,"BsAcuC (2c) [2]; 10 µM inhibitor, single measurements (two columns), 40 µM LGKac, 60 min, 37 °C",56.2%
same,remaining activity at 1 µM,"BsAcuC (2c) [2]; BsAcuC (2c), inhibitor 1 µM, individual replicates",83.2%
same,remaining activity at 1 µM,"BsAcuC (2c) [2]; BsAcuC (2c), inhibitor 1 µM, mean",84.7%
same,remaining activity at 10 µM,"BsAcuC (2c) [2]; BsAcuC (2c), inhibitor 10 µM, individual replicates",56.2%
same,remaining activity at 10 µM,"BsAcuC (2c) [2]; BsAcuC (2c), inhibitor 10 µM, mean",60.6%
same,"inhibition of BsAcuC (2c) in the initial screen, in words",BsAcuC (2c) [2]; pre-screening at 10 µM or 1 µM inhibitor,only weakly inhibited
PrpH (propanil hydrolase) of Rhizorhabdus sp. (enzyme),stoichiometry N,[3],4
PsApaH_(1-342) (4) (domain or fragment),stoichiometry N,[4],2
Pseudomonas sp. acetylpolyamine amidohydrolase ApaH (enzyme),stoichiometry N,[5],2
Δ20-37 KpHdaH (from UniProt A0A377Z5F6 1-371) (enzyme),stoichiometry N,[6],2
B1,stoichiometry N,crystal structure,4
B2,stoichiometry N,crystal structure,4
B3,Ki,[7],154000 nM
same,Ki,[8],122000 nM
same,Ki,[9],13000 nM
same,Ki,[10],44000 nM
